Results reported in publication PMC6006285, “Specific stereochemistry of OP-1074 disrupts estrogen receptor alpha helix 12 and confers pure antiestrogenic activity” (Nature Communications, 2018).
Several values for one entry are separate records, joined by “and”; a condition that tells them apart may be missing. Identical values can stand only once. Like-named read-outs stand apart in the source and are kept apart here.

What was measured:
AP = system: AP; parameters: method as in Holinka et al.; conditions: ref Holinka et al.; cited from earlier work
uterus = conditions: cited from earlier work
[1] = system: AP activity in Ishikawa uterine cells; assay: Alkaline phosphatase (AP) assay, agonist mode (absence of E2); type: cell-based, human; conditions: for Induction of AP activity (% E2): Maximum AP activity observed relative to positive control, 500 pM E2, means of n independent experiments ±s.d.; for Maximal AP activity in agonist mode relative to E2 control: absence of E2, normalized to 500 pM E2, representative experiment (Fig. 2a)
Protocol: (§1) Our primary screen to distinguish pure antiestrogens from SERMs was induction of alkaline phosphatase (AP) activity in Ishikawa uterine cells. […] The reference SERM used in our screen was endoxifen (N-desmethyl-4-hydroxytamoxifen), the most abundant bioactive metabolite of tamoxifen.
(§2) Shown is a representative figure analyzed and presented as above.
(§3) At least 4 h later cells were treated with antiestrogens and media was diluted to 2.5% stripped FBS. Cells were incubated for 3 days, media removed and plates frozen at −80 °C. Thawed plates were incubated with a chromogenic substrate of AP, p-nitrophenyl phosphate (ThermoFisher Scientific, #36721), for 40–60 min at 40 °C, and absorbance read at 405 nm on the Varioskan Lux multimodal plate reader (ThermoFisher Scientific, #VLBL00D0).

ERα = molecular target: T1, ERα (Homo sapiens, UniProt P03372); assay: ERα protein levels by immunoblotting; type: cell-based; conditions: MCF-7 cells, 100 nM ligand, 24 h, means of n experiments ±s.d.
T1 construct: endogenous in cells
T1 sequence (P03372 1-595): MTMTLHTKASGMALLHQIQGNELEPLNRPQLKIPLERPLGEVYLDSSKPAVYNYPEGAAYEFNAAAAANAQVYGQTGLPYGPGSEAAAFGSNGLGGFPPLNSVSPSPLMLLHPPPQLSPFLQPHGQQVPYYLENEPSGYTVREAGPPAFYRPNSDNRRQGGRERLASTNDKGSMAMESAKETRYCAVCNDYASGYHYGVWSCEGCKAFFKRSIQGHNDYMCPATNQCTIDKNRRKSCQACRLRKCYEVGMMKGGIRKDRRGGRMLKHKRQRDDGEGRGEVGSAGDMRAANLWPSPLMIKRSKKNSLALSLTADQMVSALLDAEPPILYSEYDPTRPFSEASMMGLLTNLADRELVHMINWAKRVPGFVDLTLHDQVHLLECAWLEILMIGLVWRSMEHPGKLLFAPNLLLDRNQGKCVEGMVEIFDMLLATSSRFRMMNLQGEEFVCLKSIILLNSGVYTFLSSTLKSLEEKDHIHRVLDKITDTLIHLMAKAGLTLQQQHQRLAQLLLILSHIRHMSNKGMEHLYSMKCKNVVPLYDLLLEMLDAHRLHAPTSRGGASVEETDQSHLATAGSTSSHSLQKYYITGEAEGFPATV
Protocol: However, it is conceivable that under some clinical contexts SERD activity may still be a desirable feature by reducing the number of functional receptors in tumors.
Imaging was performed on FluorChem Imager by Alpha Innotech. […] An uncropped image of the immunoblot is shown in Supplementary Fig. 5.

MCF-7 cells = assay: Inhibition of E2-stimulated proliferation of MCF-7 cells; type: cell-based; conditions: Homo sapiens
[2] = system: estrogen responsive reporter gene, ERE-tk109-Luc, in MCF-7 cells; assay: Inhibition of E2-stimulated transcription of ERE-tk109-Luc reporter gene in MCF-7 cells; type: cell-based; conditions: Homo sapiens
[3] = system: E2-stimulated AP activity in Ishikawa cells; assay: Alkaline phosphatase (AP) assay, antagonist mode (presence of 500 pM E2); type: cell-based, human; conditions: for Antagonism of E2-stimulated AP activity: 500 pM E2
Protocol: as §1, §2, §3

CAMA-1 cells = assay: Inhibition of E2-stimulated proliferation of CAMA-1 cells; type: cell-based; conditions: Homo sapiens, CAMA-1, 192 h; read-out: CAMA-1 IC50 proliferation (Fig. 3c)
Protocol: Shown is a representative figure analyzed and presented as above. d, Western blot of destabilization of ERα protein by OP-1074.
Proliferation was measured using CyQuant fluorescent DNA-binding dye kit (ThermoFisher Scientific, #C7026) using 1:200 GR dye and reading fluorescence at 485 nm excitation and 538 nm emission on the Varioskan Lux multimodal plate reader.

[4] = molecular target: T2, Estrogen Receptor α LBD (ERα) (Homo sapiens, UniProt P03372); assay: Competitive ligand binding assay with [3H]-E2; conditions: for IC50: 10 nM [3H]-E2 tracer, 2 nM biotinylated ERα LBD, representative experiment
T2 construct: 2 nM biotinylated Estrogen Receptor α LBD (ERα) was incubated; biotin (biotinylated)
T2 sequence (P03372 311-547 limits assumed): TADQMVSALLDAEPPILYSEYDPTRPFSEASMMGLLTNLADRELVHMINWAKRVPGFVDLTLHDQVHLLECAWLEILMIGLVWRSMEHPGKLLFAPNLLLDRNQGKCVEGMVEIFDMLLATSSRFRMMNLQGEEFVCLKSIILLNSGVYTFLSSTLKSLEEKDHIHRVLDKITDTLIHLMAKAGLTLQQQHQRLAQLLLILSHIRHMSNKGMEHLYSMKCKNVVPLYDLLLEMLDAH
Protocol: Experimental data points are mean + /− s.e.m. of triplicate samples in a representative experiment. […] Experimental data points are mean + /− s.d. of triplicate samples in a representative experiment
Triplicate reactions were vortexed and 100 μL was added in triplicate to a 96-well streptavidin flashplate (Perkin Elmer #SMP103001PK), which incubated overnight at 4 °C prior to reading.

[5] = system: uterus of ovariectomized mice; parameters: method as in PMID 15968821; conditions: cited from earlier work
MCF7/HER2/neu tumors = system: MCF7/HER2/neu tumors
Protocol: MCF7/HER2/neu cells were grown in culture and implanted into 6–7 week athymic ovariectomized female nu/nu mice (Taconic Biosciences). To stimulate tumor growth, 0.18 mg estradiol 90 day release pellets (Innovative Research) were implanted along with cells. […] Tumor volume and bodyweight were measured twice weekly. At end of the study animals were euthanized, tumors resected and snap frozen in liquid nitrogen, and uteri were resected, weighed, and fixed in 10% formalin.

[6] = MCF7, read-out: IC50 proliferation
[7] = MCF7, 24 h, read-out: IC50 transcription
[8] = MCF7, 168 h, read-out: MCF-7 IC50 proliferation (Fig. 3b)
[9] = MCF7, 22 h, read-out: IC50 inhibition of E2-stimulated transcription (Fig. 3a)
[10] = number of 10 tumors at end of study, OP-1074 100 mg/kg oral twice daily, fulvestrant 100 mg/kg subcutaneous daily

Compound	Induction of AP activity (% E2) [1]	Relative ERα protein levels (% vehicle) (ERα)	IC50 (MCF-7 cells; [6]) [nM]	IC50 [2, 7] [nM]	Maximal AP activity in agonist mode relative to E2 control ([1]; 3 days) [%]	IC50 (MCF-7 cells; [8]) [nM]	IC50 (CAMA-1 cells) [nM]	IC50 [2, 9] [nM]	further results
CC/C(=C(\c1ccc(O)cc1)c1ccc(OCCN(C)C)cc1)c1ccccc1 [4-OHT, (Z)-4-trans-hydroxytamoxifen]									Activation of AP (AP): 1.3 fold
CC/C(=C(/c1ccc(/C=C/C(=O)O)cc1)c1ccc2[nH]ncc2c1)c1ccc(F)cc1Cl [GDC-0810]									Agonist effects in the uterus (uterus): mild to moderate agonist effects in the uterus
CC1=C(c2ccc(O)cc2)C(c2ccc(OCCN3CCC[C@H]3C)cc2)Oc2cc(O)ccc21 (some centres unmarked) [OP-1039]	49% ± 18 (n = 8) % E2	119% ± 13 (n = 6) % vehicle	6.4 ± 1	0.5 ± 0.1					
CC1=C(c2ccc(O)cc2)C(c2ccc(OCCN3CCC[C@@H]3C)cc2)Oc2cc(O)ccc21 (some centres unmarked) [OP-1047]	136% ± 15 (n = 4) % E2	319% ± 100 (n = 5) % vehicle	5.5 ± 1.4	1.3 ± 0.4					
CC1=C(c2ccc(O)cc2)[C@H](c2ccc(OCCN3CC[C@H](C)C3)cc2)Oc2cc(O)ccc21 [OP-1154]	40% ± 6.5 (n = 3) % E2	123% ± 22 (n = 4) % vehicle	6 ± 1.1	5.6 ± 2.1	39	6.9	8.1	4	Antagonism of E2-stimulated AP activity ([3]; Ishikawa cells): did not completely antagonize E2-stimulated AP activity; IC50 [4]: 14.3 ± 0.06 nM; Binding affinity relative to OP-1074 and OP-1156 (fold lower) ([4]; [3H]-E2 competitive binding): approximately 2 fold
CC1=C(c2ccc(O)cc2)[C@H](c2ccc(OCCN3CCCC3)cc2)Oc2cc(O)ccc21 [OP-1156]	40% ± 7.8 (n = 3) % E2	152% ± 31 (n = 4) % vehicle	5.2 ± 1.3	5.9 ± 2.1	40	6.3	4.2	4	IC50 [4]: 6 nM and 6.13 nM; Uterine wet weight [5]: increased uterine wet weight
CCNCCc1ccc(CN(CC)c2cc(OC)ccc2[C@@H]2CCc3cc(O)ccc3C2)cc1 [RAD1901]									Agonist effects in the uterus (uterus): mild to moderate agonist effects in the uterus
CC/C(=C(\c1ccc(O)cc1)c1ccc(OCCNC)cc1)c1ccccc1 [endoxifen, (Z)-4-hydroxy-N-desmethyltamoxifen, reference compound]	73% ± 10 (n = 8) % E2	139% ± 34 (n = 20) % vehicle	13 ± 2.2	6.3 ± 1.3	82				AP activity remaining in antagonist mode ([3]; Ishikawa cells, 500 pM E2, 1 µM drug): 58%
C[C@]12CC[C@@H]3c4ccc(O)cc4C[C@@H](CCCCCCCCC[S+]([O-])CCCC(F)(F)C(F)(F)F)[C@H]3[C@@H]1CC[C@@H]2O (some centres unmarked) [fulvestrant, reference compound]	0.05% ± 2.7 (n = 58) % E2		2.5 ± 0.3	2 ± 0.2		2.2	1.9	6.3	AP activity in agonist mode ([1]; 3 days, absence of E2, all doses tested): lacked any AP activity; IC50 ([3]; Homo sapiens, Ishikawa, 72 h, read-out: IC50 inhibition of E2-stimulated AP activity): 3 nM; Antagonism of E2-stimulated AP activity ([3]; Ishikawa cells): completely inhibited E2-stimulated AP activity; Tumors shrunk / growth inhibited by >50% (MCF7/HER2/neu tumors; [10]): 5/10; Tumors shrunk >80% (MCF7/HER2/neu tumors; [10]): 1/10
CC/C(=C(\c1ccccc1)c1ccc(OCCN(C)C)cc1)c1ccccc1 [tamoxifen, reference compound]									Tumors shrunk below the initial tumor size (MCF7/HER2/neu tumors; end of study, 100 mg/kg tamoxifen daily by oral gavage): half
